Experimental data as given in patent US20230339851A1, “CXCR6 SULFONAMIDE COMPOUNDS” (CHEMOCENTRYX, INC., priority 2022, published 2023).

Target: T1, human CXCR6 (Homo sapiens, UniProt O00574)
T1 construct: expressed in transfected cells
Test: Radioligand Binding Assay (125I-CXCL16 displacement)
Conditions: L1.2 cells stably transfected with human CXCR6 cDNA, 0.1 nM 125I-CXCL16, 4° C., three-hour incubation; read-out: Potency (IC50)
Procedure: L1.2 cells stably transfected with human CXCR6 cDNA ([…]) were incubated at 4° C. in HBSS containing 0.1 % BSA and 0.1 nM of ^125I-CXCL16 plus various concentrations of Compound. Following a three-hour incubation period, cells were aspirated onto polyethyleneimine-treated GF/B glass fiber filters (PerkinElmer, Waltham, MA) with a cell harvester (Tomtec, Hamden, CT) and washed twice with washing buffer (25 mM Hepes, 500 mM NaCl, 1 mM CaCI2, 5 mM MgCI2, pH 7.1). Fifty µl of MicroScint-20 (PerkinElmer, Waltham, MA) was added to each well of the filters, and radioactive emissions (cpm) were measured on a Packard TopCount Scintillation counter (PerkinElmer, Waltham, MA). IC50 values were calculated with GraphPad Prism using 3 parameter nonlinear regression. […]

T1 sequence (O00574 whole entry): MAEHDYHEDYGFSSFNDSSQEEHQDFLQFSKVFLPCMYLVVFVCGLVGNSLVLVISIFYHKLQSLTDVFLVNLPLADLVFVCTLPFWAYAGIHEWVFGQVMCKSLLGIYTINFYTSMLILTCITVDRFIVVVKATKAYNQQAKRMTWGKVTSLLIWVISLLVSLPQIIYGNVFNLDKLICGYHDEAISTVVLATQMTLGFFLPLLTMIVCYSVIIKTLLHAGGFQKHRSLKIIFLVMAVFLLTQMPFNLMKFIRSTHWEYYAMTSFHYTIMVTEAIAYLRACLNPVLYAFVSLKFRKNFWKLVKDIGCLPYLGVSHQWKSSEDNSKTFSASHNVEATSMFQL

An IC50 of 2000 to 20000 nM was found for `COc1cc(NC(=O)c2ccnn2C)ccc1S(=O)(=O)Nc1ccccc1OC(F)(F)F` [Example 1.016] in this work.

An IC50 of 2000 to 20000 nM was found for `COc1cc(NC(=O)CC2CCOCC2)ccc1S(=O)(=O)Nc1cccc(C(F)(F)F)c1` [Example 1.574] in this work.

An IC50 of 200 to 750 nM was found for `CCc1cc(NC(=O)c2ccccc2)ccc1S(=O)(=O)Nc1cccc(C(F)(F)F)c1` [Example 1.193] in this work.

An IC50 of 200 to 750 nM was found for `COc1cc(NC(=O)[C@H]2CCCC[C@H]2O)ccc1S(=O)(=O)Nc1cccc(OC(F)(F)F)c1` [Example 1.111] in this work.

An IC50 of no more than 200 nM was found for `CCOc1cc(NC(=O)[C@@H](O)c2ccccc2Cl)ccc1S(=O)(=O)Nc1cccc(OC(F)(F)F)c1` [Example 1.276] in this work.

An IC50 of 750 to 2000 nM was found for `CCOc1cc(NC(=O)[C@@H](CO)C(C)C)ccc1S(=O)(=O)Nc1cccc(Cl)c1OC` [Example 1.362] in this work.

An IC50 of 2000 to 20000 nM was found for `CCOc1cc(NC(=O)[C@@H](O)C(C)C)ccc1S(=O)(=O)Nc1cccc(OC(F)(F)F)c1C` [Example 1.267] in this work.

An IC50 of 200 to 750 nM was found for `COc1cc(NC(=O)C2CC3CCC2O3)ccc1S(=O)(=O)Nc1cccc(OC(F)(F)F)c1` (centres unmarked) [Example 1.360] in this work.

An IC50 of 750 to 2000 nM was found for `COc1cc(NC(=O)c2ccnn2C)ccc1S(=O)(=O)Nc1ccc(Cl)c(Cl)c1` [Example 1.247] in this work.

An IC50 of 750 to 2000 nM was found for `COc1cc(NC(=O)c2ccnn2C)ccc1S(=O)(=O)Nc1cccc(OC(C)C)c1` [Example 1.145] in this work.

An IC50 of no more than 200 nM was found for `CCOc1cc(NC(=O)[C@@H](CO)C(C)C)ccc1S(=O)(=O)Nc1ccc(F)c(OC(F)(F)F)c1` [Example 1.288] in this work.

An IC50 of 750 to 2000 nM was found for `CCc1cc(C(=O)Nc2ccc(S(=O)(=O)Nc3cccc(C(F)(F)F)c3)c(OC)c2)n(C)n1` [Example 1.027] in this work.

An IC50 of 2000 to 20000 nM was found for `COCCC(=O)Nc1ccc(S(=O)(=O)Nc2cccc(C(F)(F)F)c2)c(OC)c1` [Example 1.423] in this work.

An IC50 of no more than 200 nM was found for `COc1cc(NC(=O)[C@@H](CO)C2CC2)ccc1S(=O)(=O)Nc1cccc(OC(F)(F)F)c1` [Example 1.283] in this work.

An IC50 of no more than 200 nM was found for `CCOc1cc(NC(=O)C(CO)C2CCCC2)ccc1S(=O)(=O)Nc1cccc(OC(F)(F)F)c1` (centres unmarked) [Example 1.455] in this work.

An IC50 of 2000 to 20000 nM was found for `Cc1cc(NC(=O)c2cncn2C)ccc1S(=O)(=O)Nc1cccc(C(F)(F)F)c1` [Example 1.048] in this work.

An IC50 of 2000 to 20000 nM was found for `COc1cccc(C(=O)Nc2ccc(S(=O)(=O)Nc3cccc(C(F)(F)F)c3)c(C)c2)c1` [Example 1.534] in this work.

An IC50 of 200 to 750 nM was found for `CCOc1cc(NC(=O)[C@@H](CO)c2ccccc2)ccc1S(=O)(=O)Nc1ccc(Cl)c(C(F)(F)F)c1` [Example 1.178] in this work.

An IC50 of no more than 200 nM was found for `CCOc1cc(NC(=O)[C@@H](NC(C)=O)C(C)C)ccc1S(=O)(=O)Nc1ccc(Cl)c(OC(F)(F)F)c1` [Example 1.576] in this work.

An IC50 of 200 to 750 nM was found for `COc1cc(NC(=O)c2ccn(C)c(=O)c2)ccc1S(=O)(=O)Nc1cccc(OC(F)(F)F)c1` [Example 1.038] in this work.

An IC50 of 750 to 2000 nM was found for `CCOc1cc(NC(=O)c2ccc(=O)n(C)c2)ccc1S(=O)(=O)Nc1cccc(OC(F)(F)F)c1` [Example 1.515] in this work.

An IC50 of 200 to 750 nM was found for `CCOc1cc(NC(=O)[C@H]2CCC=C[C@H]2O)ccc1S(=O)(=O)Nc1cccc(OC(F)(F)F)c1` [Example 1.226] in this work.

An IC50 of no more than 200 nM was found for `CCOc1cc(NC(=O)C(O)C2CC2)ccc1S(=O)(=O)Nc1cccc(OC(F)(F)F)c1` (centres unmarked) [Example 1.198] in this work.

An IC50 of 2000 to 20000 nM was found for `CCOc1cc(NC(=O)C2CCCN(C(=O)OC(C)(C)C)C2)ccc1S(=O)(=O)Nc1cccc(OC(F)(F)F)c1` (centres unmarked) [Example 1.458] in this work.

An IC50 of no more than 200 nM was found for `CC(C)[C@H](CO)C(=O)Nc1ccc(S(=O)(=O)Nc2cccc(OC(F)(F)F)c2)c(C#N)c1` [Example 1.482] in this work.

An IC50 of 2000 to 20000 nM was found for `COc1cc(NC(=O)CC2COCCN2)ccc1S(=O)(=O)Nc1cccc(C(F)(F)F)c1` (centres unmarked) [Example 1.240] in this work.

An IC50 of no more than 200 nM was found for `CCOc1cc(NC(=O)[C@@H](CO)C(C)C)ccc1S(=O)(=O)Nc1ccc(C)c(OC(F)(F)F)c1` [Example 1.342] in this work.

An IC50 of 200 to 750 nM was found for `CCn1nccc1C(=O)Nc1ccc(S(=O)(=O)Nc2cccc(C(F)(F)F)c2)c(C)c1` [Example 1.519] in this work.

An IC50 of 200 to 750 nM was found for `CCOc1cc(NC(=O)[C@H](CO)c2ccccc2)ccc1S(=O)(=O)Nc1cccc(OC(F)(F)F)c1` [Example 1.287] in this work.

An IC50 of 750 to 2000 nM was found for `CCOc1cc(NC(=O)C(O)C(C)O)ccc1S(=O)(=O)Nc1cccc(OC(F)(F)F)c1` (centres unmarked) [Example 1.164] in this work.

An IC50 of no more than 200 nM was found for `CCOc1cc(NC(=O)[C@@H](NC(=O)CC)C(C)C)ccc1S(=O)(=O)Nc1cccc(OC(F)(F)F)c1` [Example 1.241] in this work.

An IC50 of 2000 to 20000 nM was found for `CC(=O)Nc1ccc(S(=O)(=O)Nc2cccc(C(F)(F)F)c2)c(C)c1` [Example 1.321] in this work.

An IC50 of 200 to 750 nM was found for `Cc1cc(NC(=O)c2ccccc2Cl)ccc1S(=O)(=O)Nc1cccc(C(F)(F)F)c1` [Example 1.292] in this work.

An IC50 of 2000 to 20000 nM was found for `CC(C)Oc1cc(NC(=O)c2ccnn2C)ccc1S(=O)(=O)Nc1cccc(C(F)(F)F)c1` [Example 1.317] in this work.

An IC50 of 200 to 750 nM was found for `Cc1cc(NC(=O)C(CO)c2ccccc2)ccc1S(=O)(=O)Nc1cccc(OC(F)(F)F)c1` (centres unmarked) [Example 1.569] in this work.

An IC50 of 2000 to 20000 nM was found for `CCOc1cc(NC(=O)CC(O)c2nccn2C)ccc1S(=O)(=O)Nc1cccc(OC(F)(F)F)c1` (centres unmarked) [Example 1.106] in this work.

An IC50 of 200 to 750 nM was found for `CCOc1cc(NC(=O)[C@@H](O)C(C)C)ccc1S(=O)(=O)Nc1ccc(F)c(C)c1` [Example 1.440] in this work.

An IC50 of 200 to 750 nM was found for `CCOc1cc(NC(=O)c2cccc3cn[nH]c23)ccc1S(=O)(=O)Nc1cccc(OC(F)(F)F)c1` [Example 1.357] in this work.

An IC50 of 200 to 750 nM was found for `CCn1nccc1C(=O)Nc1ccc(S(=O)(=O)Nc2cccc(C(F)(F)F)c2)c(OC)c1` [Example 1.238] in this work.

An IC50 of 200 to 750 nM was found for `CCOc1cc(NC(=O)C2CCC(O)CC2)ccc1S(=O)(=O)Nc1cccc(OC(F)(F)F)c1` (centres unmarked) [Example 1.183] in this work.

An IC50 of 2000 to 20000 nM was found for `CCOc1cc(NC(=O)[C@H]2CC=CC[C@@H]2C(=O)O)ccc1S(=O)(=O)Nc1ccc(C)c(OC(F)(F)F)c1` (racemic) [Example 1.167] in this work.

An IC50 of no more than 200 nM was found for `CCOc1cc(NC(=O)[C@@H](CO)C2CC2)ccc1S(=O)(=O)Nc1ccc(CC)c(C)c1` [Example 1.135] in this work.

An IC50 of 200 to 750 nM was found for `CCOc1cc(NC(=O)[C@@H](O)C(C)C)ccc1S(=O)(=O)Nc1ccc(C)c(F)c1` [Example 1.195] in this work.

An IC50 of no more than 200 nM was found for `CCOc1cc(NC(=O)[C@@H](NC(=O)C(F)(F)F)C(C)CC)ccc1S(=O)(=O)Nc1cccc(OC(F)(F)F)c1` (some centres unmarked) [Example 1.089] in this work.

An IC50 of 750 to 2000 nM was found for `Cc1cc(NC(=O)[C@@H](CO)c2ccccc2)ccc1S(=O)(=O)Nc1cccc(C(F)(F)F)c1` [Example 1.459] in this work.

An IC50 of no more than 200 nM was found for `CCOc1cc(NC(=O)c2cncnc2)ccc1S(=O)(=O)Nc1cccc(OC(F)(F)F)c1` [Example 1.171] in this work.

An IC50 of 200 to 750 nM was found for `CCOc1cc(NC(=O)[C@@H](CO)C2CC2)ccc1S(=O)(=O)Nc1cccc(C(C)(C)C)c1` [Example 1.516] in this work.

An IC50 of 750 to 2000 nM was found for `CCOc1cc(NC(=O)c2ccc(N(C)C)cc2)ccc1S(=O)(=O)Nc1cccc(OC(F)(F)F)c1` [Example 1.315] in this work.

An IC50 of no more than 200 nM was found for `CCOc1cc(NC(=O)[C@@H](O)c2ccccc2)ccc1S(=O)(=O)Nc1ccc(C)c(OC(F)(F)F)c1` [Example 1.279] in this work.

An IC50 of 2000 to 20000 nM was found for `CC(=O)Nc1cc(C)c(S(=O)(=O)Nc2cccc(C(F)(F)F)c2)c(C)c1` [Example 1.490] in this work.

An IC50 of 2000 to 20000 nM was found for `CCCCOc1cc(NC(=O)c2ccns2)ccc1S(=O)(=O)Nc1cccc(C(F)(F)F)c1` [Example 1.124] in this work.

An IC50 of 200 to 750 nM was found for `CCc1cc(NC(=O)c2ccns2)ccc1S(=O)(=O)Nc1cccc(C(F)(F)F)c1` [Example 1.225] in this work.

An IC50 of no more than 200 nM was found for `CCOc1cc(NC(=O)[C@@H](CO)C(C)C)ccc1S(=O)(=O)Nc1cccc(C(C)(C)C)c1` [Example 1.017] in this work.
